Results from BindingDB's records for doi:10.1074/jbc.M114.557629 (Weizmann Institute of Science, 2014).

Experiments:
[1] = biological target: Sodium/potassium-transporting ATPase subunit alpha-1/beta-1 (Homo sapiens, UniProt P05023+P05026); assay: Na,K-ATPase Inhibition Assay
[2] = biological target: Sodium/potassium-transporting ATPase subunit alpha-2/beta-1 (Homo sapiens, UniProt P05026+P50993); assay: Na,K-ATPase Inhibition Assay

Structure (SMILES) | Ki [1] | Ki [2]
CC1CN(C(CO)C(N)=O)CCC(O[C@@H]2[C@H](C)O[C@@H](O[C@@H]3[C@H](C)O[C@@H](O[C@H]4CC[C@@]5(C)C(CCC6C5C[C@H](O)[C@]5(C)[C@@H](C7=CC(=O)OC7)CC[C@]65O)C4)C[C@@H]3O)C[C@@H]2O)O1 (some centres not stated) [DSerN (7)] | 242 nM | 144 nM
CC1CN(O)CCC(O[C@@H]2[C@H](C)O[C@@H](O[C@@H]3[C@H](C)O[C@@H](O[C@H]4CC[C@@]5(C)C(CCC6C5C[C@H](O)[C@]5(C)[C@@H](C7=CC(=O)OC7)CC[C@]65O)C4)C[C@@H]3O)C[C@@H]2O)O1 (some centres not stated) [DOH (1)] | 311 nM | 134 nM
C[C@]12CC[C@H](O)C[C@H]1CC[C@@H]1[C@@H]2C[C@@H](O)[C@]2(C)[C@@H](C3=CC(=O)OC3)CC[C@]12O [CS337] | 139 nM | 130 nM
COC(=O)CN1CCC(O[C@@H]2[C@H](C)O[C@@H](O[C@@H]3[C@H](C)O[C@@H](O[C@H]4CC[C@@]5(C)C(CCC6C5C[C@H](O)[C@]5(C)[C@@H](C7=CC(=O)OC7)CC[C@]65O)C4)C[C@@H]3O)C[C@@H]2O)OC(C)C1 (some centres not stated) [DGlMe (3)] | 540 nM | 128 nM
CC1CN(C(CC(=O)O)CC(=O)O)CCC(O[C@@H]2[C@H](C)O[C@@H](O[C@@H]3[C@H](C)O[C@@H](O[C@H]4CC[C@@]5(C)C(CCC6C5C[C@H](O)[C@]5(C)[C@@H](C7=CC(=O)OC7)CC[C@]65O)C4)C[C@@H]3O)C[C@@H]2O)O1 (some centres not stated) [DbisGly (14)] | 80 nM | 34.9 nM
CC1CN(C(C)C(N)=O)CCC(O[C@@H]2[C@H](C)O[C@@H](O[C@@H]3[C@H](C)O[C@@H](O[C@H]4CC[C@@]5(C)C(CCC6C5C[C@H](O)[C@]5(C)[C@@H](C7=CC(=O)OC7)CC[C@]65O)C4)C[C@@H]3O)C[C@@H]2O)O1 (some centres not stated) [DAlaN (5)] | 232 nM | 67 nM
CC1CN(CC(F)(F)F)CCC(O[C@@H]2[C@H](C)O[C@@H](O[C@@H]3[C@H](C)O[C@@H](O[C@H]4CC[C@@]5(C)C(CCC6C5C[C@H](O)[C@]5(C)[C@@H](C7=CC(=O)OC7)CC[C@]65O)C4)C[C@@H]3O)C[C@@H]2O)O1 (some centres not stated) [DMeCF3 (13)] | 199 nM | 44 nM
CCN1CCC(O[C@@H]2[C@H](C)O[C@@H](O[C@@H]3[C@H](C)O[C@@H](O[C@H]4CC[C@@]5(C)C(CCC6C5C[C@H](O)[C@]5(C)[C@@H](C7=CC(=O)OC7)CC[C@]65O)C4)C[C@@H]3O)C[C@@H]2O)OC(C)C1 (some centres not stated) [DEt (12)] | 53 nM | 18.5 nM
CC1CN(CC(=O)O)CCC(O[C@@H]2[C@H](C)O[C@@H](O[C@@H]3[C@H](C)O[C@@H](O[C@H]4CC[C@@]5(C)C(CCC6C5C[C@H](O)[C@]5(C)[C@@H](C7=CC(=O)OC7)CC[C@]65O)C4)C[C@@H]3O)C[C@@H]2O)O1 (some centres not stated) [DGly (2)] | 124 nM | 25 nM
CC1CN(C(CO)C(=O)O)CCC(O[C@@H]2[C@H](C)O[C@@H](O[C@@H]3[C@H](C)O[C@@H](O[C@H]4CC[C@@]5(C)C(CCC6C5C[C@H](O)[C@]5(C)[C@@H](C7=CC(=O)OC7)CC[C@]65O)C4)C[C@@H]3O)C[C@@H]2O)O1 (some centres not stated) [DSer (6)] | 316 nM | 145 nM
CC1CN(C)CCC(O[C@@H]2[C@H](C)O[C@@H](O[C@@H]3[C@H](C)O[C@@H](O[C@H]4CC[C@@]5(C)C(CCC6C5C[C@H](O)[C@]5(C)[C@@H](C7=CC(=O)OC7)CC[C@]65O)C4)C[C@@H]3O)C[C@@H]2O)O1 (some centres not stated) [DMe (11)] | 101 nM | 15.6 nM
C[C@H]1O[C@@H](O[C@H]2[C@@H](O)C[C@H](O[C@H]3CC[C@@]4(C)[C@H](CC[C@@H]5[C@@H]4C[C@@H](O)[C@]4(C)[C@@H](C6=CC(=O)OC6)CC[C@]54O)C3)O[C@@H]2C)C[C@H](O)[C@@H]1O [Dbis] | 196 nM | 74 nM
CC1CN(CCC(N)=O)CCC(O[C@@H]2[C@H](C)O[C@@H](O[C@@H]3[C@H](C)O[C@@H](O[C@H]4CC[C@@]5(C)C(CCC6C5C[C@H](O)[C@]5(C)[C@@H](C7=CC(=O)OC7)CC[C@]65O)C4)C[C@@H]3O)C[C@@H]2O)O1 (some centres not stated) [DPrN (9)] | 249 nM | 47 nM
CC1CN(CC(N)=O)CCC(O[C@@H]2[C@H](C)O[C@@H](O[C@@H]3[C@H](C)O[C@@H](O[C@H]4CC[C@@]5(C)C(CCC6C5C[C@H](O)[C@]5(C)[C@@H](C7=CC(=O)OC7)CC[C@]65O)C4)C[C@@H]3O)C[C@@H]2O)O1 (some centres not stated) [DGlyN (4)] | 152 nM | 20.4 nM
CC1CN(CCN)CCC(O[C@@H]2[C@H](C)O[C@@H](O[C@@H]3[C@H](C)O[C@@H](O[C@H]4CC[C@@]5(C)C(CCC6C5C[C@H](O)[C@]5(C)[C@@H](C7=CC(=O)OC7)CC[C@]65O)C4)C[C@@H]3O)C[C@@H]2O)O1 (some centres not stated) [DEtDA (10)] | 69 nM | 16.7 nM
CC1CN(NC(N)=O)CCC(O[C@@H]2[C@H](C)O[C@@H](O[C@@H]3[C@H](C)O[C@@H](O[C@H]4CC[C@@]5(C)C(CCC6C5C[C@H](O)[C@]5(C)[C@@H](C7=CC(=O)OC7)CC[C@]65O)C4)C[C@@H]3O)C[C@@H]2O)O1 (some centres not stated) [DSCar (8)] | 102 nM | 20 nM
